The record followed here is ChEMBL document CHEMBL5291721, “A preclinical secondary pharmacology resource illuminates target-adverse drug reaction associations of marketed drugs” (Nat Commun, 2023).

Experiment [1] concerns the target T1, Type-1 angiotensin II receptor (Homo sapiens, UniProt P30556).
T1 sequence (P30556 whole entry): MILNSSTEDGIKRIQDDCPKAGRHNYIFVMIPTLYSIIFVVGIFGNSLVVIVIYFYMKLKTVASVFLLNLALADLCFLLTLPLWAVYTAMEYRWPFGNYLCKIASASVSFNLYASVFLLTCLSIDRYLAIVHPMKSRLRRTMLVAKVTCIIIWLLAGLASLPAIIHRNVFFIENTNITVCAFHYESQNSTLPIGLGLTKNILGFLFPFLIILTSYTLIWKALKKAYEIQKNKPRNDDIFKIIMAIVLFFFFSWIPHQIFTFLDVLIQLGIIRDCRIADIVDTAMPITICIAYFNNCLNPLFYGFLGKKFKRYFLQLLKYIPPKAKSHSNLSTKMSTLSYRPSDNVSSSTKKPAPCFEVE

The target in experiment [2] is Type-2 angiotensin II receptor (Homo sapiens, UniProt P50052). Format: functional.
Type-2 angiotensin II receptor, sequence (P50052 whole entry): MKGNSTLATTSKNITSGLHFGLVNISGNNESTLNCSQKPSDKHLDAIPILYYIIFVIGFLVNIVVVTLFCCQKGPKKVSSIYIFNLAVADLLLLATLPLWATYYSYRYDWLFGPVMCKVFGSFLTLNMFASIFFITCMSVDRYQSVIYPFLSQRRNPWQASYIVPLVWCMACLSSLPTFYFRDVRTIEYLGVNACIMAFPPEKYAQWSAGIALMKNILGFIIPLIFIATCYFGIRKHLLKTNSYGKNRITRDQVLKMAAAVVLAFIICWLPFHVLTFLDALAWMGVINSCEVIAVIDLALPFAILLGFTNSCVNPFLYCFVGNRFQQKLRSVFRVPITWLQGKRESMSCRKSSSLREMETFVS
For experiment [3], the target named is T2, Prostaglandin G/H synthase 1 (Rattus norvegicus, UniProt Q63921).
T2 sequence (Q63921 whole entry): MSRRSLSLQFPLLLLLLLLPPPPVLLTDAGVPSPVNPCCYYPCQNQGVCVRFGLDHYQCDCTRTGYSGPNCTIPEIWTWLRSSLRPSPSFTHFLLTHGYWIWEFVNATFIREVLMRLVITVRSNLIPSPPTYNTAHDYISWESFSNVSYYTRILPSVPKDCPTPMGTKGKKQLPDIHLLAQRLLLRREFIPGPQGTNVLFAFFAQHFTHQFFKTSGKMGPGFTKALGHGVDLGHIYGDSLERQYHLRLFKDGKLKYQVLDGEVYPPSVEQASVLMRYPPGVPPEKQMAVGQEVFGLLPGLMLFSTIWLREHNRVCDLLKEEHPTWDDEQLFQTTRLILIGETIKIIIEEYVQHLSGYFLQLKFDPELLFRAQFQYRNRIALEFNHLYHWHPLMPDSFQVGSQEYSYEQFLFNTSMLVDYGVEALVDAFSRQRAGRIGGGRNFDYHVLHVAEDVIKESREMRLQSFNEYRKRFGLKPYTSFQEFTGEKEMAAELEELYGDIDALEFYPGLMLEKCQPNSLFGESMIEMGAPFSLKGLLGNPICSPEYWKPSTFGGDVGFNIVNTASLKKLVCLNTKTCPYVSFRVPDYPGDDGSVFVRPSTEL
Format: functional.

Experiment [4] addresses T3, Oxysterols receptor LXR-beta (Homo sapiens, UniProt P55055).
T3 sequence (P55055 whole entry): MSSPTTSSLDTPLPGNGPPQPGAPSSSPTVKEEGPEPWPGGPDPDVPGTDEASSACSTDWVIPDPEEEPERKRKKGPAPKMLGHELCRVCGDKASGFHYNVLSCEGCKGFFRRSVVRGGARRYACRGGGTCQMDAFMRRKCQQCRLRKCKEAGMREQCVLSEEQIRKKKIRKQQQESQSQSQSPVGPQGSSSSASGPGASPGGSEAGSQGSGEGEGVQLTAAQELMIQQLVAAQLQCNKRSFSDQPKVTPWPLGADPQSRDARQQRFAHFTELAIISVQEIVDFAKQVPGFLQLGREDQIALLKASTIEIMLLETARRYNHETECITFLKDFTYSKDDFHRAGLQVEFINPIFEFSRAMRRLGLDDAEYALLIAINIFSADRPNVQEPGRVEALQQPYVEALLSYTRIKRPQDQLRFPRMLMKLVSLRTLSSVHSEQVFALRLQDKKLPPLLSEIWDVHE
The format is functional.

Experiment [5] concerns the target T4, Oxysterols receptor LXR-alpha (Homo sapiens, UniProt Q13133).
T4 sequence (Q13133 whole entry): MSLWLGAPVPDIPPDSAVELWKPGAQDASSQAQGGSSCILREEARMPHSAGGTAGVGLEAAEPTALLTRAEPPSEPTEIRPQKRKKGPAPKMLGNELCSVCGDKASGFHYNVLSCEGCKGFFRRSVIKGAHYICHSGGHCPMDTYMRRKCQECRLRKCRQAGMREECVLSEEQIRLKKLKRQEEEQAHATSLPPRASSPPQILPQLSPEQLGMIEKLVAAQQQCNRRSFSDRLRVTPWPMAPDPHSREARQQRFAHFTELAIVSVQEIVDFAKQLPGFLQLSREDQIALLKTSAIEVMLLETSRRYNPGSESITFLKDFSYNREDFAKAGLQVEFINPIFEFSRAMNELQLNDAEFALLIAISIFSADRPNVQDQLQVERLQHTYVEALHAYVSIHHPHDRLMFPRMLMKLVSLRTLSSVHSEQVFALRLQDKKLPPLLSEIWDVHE
The format is functional.

Experiment [6] concerns the target T5, Retinoic acid receptor alpha (Homo sapiens, UniProt P10276).
T5 sequence (P10276 whole entry): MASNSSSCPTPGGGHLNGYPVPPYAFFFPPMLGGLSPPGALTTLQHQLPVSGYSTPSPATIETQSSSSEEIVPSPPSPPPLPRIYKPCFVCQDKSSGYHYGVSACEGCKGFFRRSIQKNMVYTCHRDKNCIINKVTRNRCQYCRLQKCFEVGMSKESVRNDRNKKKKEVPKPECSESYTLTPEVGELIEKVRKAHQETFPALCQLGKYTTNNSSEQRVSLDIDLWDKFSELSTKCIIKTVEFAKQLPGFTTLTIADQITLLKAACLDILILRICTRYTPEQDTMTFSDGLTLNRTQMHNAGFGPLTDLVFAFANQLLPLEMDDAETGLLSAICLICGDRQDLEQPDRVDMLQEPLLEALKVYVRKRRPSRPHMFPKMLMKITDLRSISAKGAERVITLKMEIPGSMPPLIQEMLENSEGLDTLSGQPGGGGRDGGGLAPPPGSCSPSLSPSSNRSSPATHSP
The format is functional, cell-based.

In experiment [7] the target is T6, Muscarinic acetylcholine receptor M1 (Homo sapiens, UniProt P11229).
T6 sequence (P11229 whole entry): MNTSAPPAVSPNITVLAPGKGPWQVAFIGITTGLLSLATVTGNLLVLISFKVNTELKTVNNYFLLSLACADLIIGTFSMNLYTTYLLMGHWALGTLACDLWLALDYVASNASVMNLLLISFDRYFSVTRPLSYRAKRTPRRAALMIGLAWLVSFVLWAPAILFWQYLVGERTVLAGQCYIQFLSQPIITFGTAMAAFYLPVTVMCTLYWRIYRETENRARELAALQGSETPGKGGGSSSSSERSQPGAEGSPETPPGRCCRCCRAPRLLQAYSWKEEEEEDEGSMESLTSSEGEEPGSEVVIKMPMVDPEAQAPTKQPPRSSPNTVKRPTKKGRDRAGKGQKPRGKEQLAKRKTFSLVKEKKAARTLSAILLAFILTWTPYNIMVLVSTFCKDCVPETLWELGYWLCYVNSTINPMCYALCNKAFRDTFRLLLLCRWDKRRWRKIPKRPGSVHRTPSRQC
Also: assay procedure not described here.

For `CN1CCCC(n2nc(Cc3ccc(Cl)cc3)c3ccccc3c2=O)CC1` (configuration not stated) [AZELASTINE], the AC50 (commonly the concentration giving half of the maximal activity seen) in experiment [1] was greater than 100 µM.
`CC(C)NCC(O)COc1ccc(COCCOC(C)C)cc1` (configuration not stated) [BISOPROLOL] returned a half-maximal activity concentration (AC50) in experiment [2] greater than 100 µM.
The compound `COC(=O)[C@@H]1CC2=CC(=O)CC[C@]2(C)[C@@]23O[C@@H]2C[C@@]2(C)[C@@H](CC[C@@]24CCC(=O)O4)[C@H]13` [EPLERENONE] yielded an AC50 in experiment [3] greater than 30 µM.
For the compound `COc1ccc2c(c1)C(=O)N(CCc1ccc(S(=O)(=O)NC(=O)NC3CCCCC3)cc1)C(=O)C2(C)C` [GLIQUIDONE], the values for the AC50 in experiment [4], in experiment [5] and in experiment [6] were 2.7 µM, greater than 30 µM and 22 µM, respectively.
In experiment [7], `Cc1cc2c(cc1CC(=O)c1sccc1S(=O)(=O)Nc1onc(C)c1Cl)OCO2` [SITAXENTAN] showed an AC50 greater than 30 µM.
